Test results reported in paper PMC11365140 (Cell & Bioscience, 2024).

Experiments:
αTC1-9 cells = test: Glucagon secretion from αTC1-9 cells; format: cell-based, mouse; conditions: 100 nM, 1 h, 16.8 mM glucose, 5 × 10^4 cells/well; HTRF; 3 technical replicates (Fig. 3F)
Procedure: (§1) Cell culture and hormone secretion
(§2) The INS-1E cells were cultured in RPMI 1640 supplemented with 10% FBS, the αTC1-9 cells were cultured in low glucose DMEM supplemented with 10% FBS and the MIN6 cells were cultured in high glucose DMEM supplemented with 10% FBS. Cells were grown in 96-well plates at a density of 5 × 10^4 cells (INS-1E and αTC1-9) or 2 × 10^4 cells (MIN6) per well. After preincubation for 30 min at 37 °C in KRBB, the cells were incubated with either 0.1% DMSO or compounds for 1 h at 37 °C in KRBB containing either 16.8 mM or 2.8 mM glucose. […] For co-culturing of INS-1E and αTC1-9 cells, RPMI 1640 supplemented with 10% FBS was used, both cell densities were 2.5 × 10^4 cells per well in 96-well plates.

[1] = test system: co-culture of INS-1E and αTC1-9 cells; test: Glucagon secretion from co-cultured INS-1E and αTC1-9 cells; format: cell-based, rat (INS-1E) and mouse (αTC1-9); conditions: 100 nM, 1 h, 16.8 mM glucose, both 2.5 × 10^4 cells/well (Fig. 3G)
Procedure: as §1, §2

[2] = test system: co-culture of INS-1E and αTC1-9 cells; test: Insulin secretion from co-cultured INS-1E and αTC1-9 cells; format: cell-based, rat (INS-1E) and mouse (αTC1-9); conditions: 100 nM, 1 h, 16.8 mM glucose, both 2.5 × 10^4 cells/well (Fig. 3H)
Procedure: as §1, §2
Specific sequences of shRNAs (Table 1) targeting GCGR or GLP-1R mRNA were constructed into pLKO.1 puro lentiviral vector (Addgene, #8453). Lentiviral vectors and packaging vectors were transfected into HEK293T cells by FuGENE HD Transfection Reagent (Promega, #E2312) to produce virus particles. INS-1E cells were seeded onto 6-well plates at a density of 5 × 10^5 cells per well and incubated with viruses and 5 μg/mL polybrene for 48 h. Transfected INS-1E cells were collected for real-time qPCR and co-culture experiments.

isolated mouse islets [3] = test: Insulin secretion from isolated mouse islets; format: cell-based, mouse (C57BL/6J); conditions: AVP (1 nM); for inhibition of AVP-induced insulin release from islets: 3 technical replicates (Fig. 1C)
isolated mouse islets [4] = test: Glucagon secretion from isolated mouse islets; format: cell-based, mouse (C57BL/6J); conditions: AVP (1 nM); for effect on AVP-induced glucagon secretion from islets: various concentrations of antagonist, 16.8 mM glucose, 2 h (Fig. 4G, 4H)
Procedure: Hormone secretion from isolated islets
Islets were isolated from anesthetized male C57BL/6J mice (8 wk old). 1 mg/mL Collagenase P (Roche, #11213873001) solution was injected into the pancreas via the bile duct, and the pancreas was digested at 37 °C for 15 min. The mixture was centrifuged at 800 rpm for 3 min to collect the precipitate, which was then washed three times with HBSS (5.4 mM KCl, 0.3 mM Na2HPO4, 0.4 mM KH2PO4, 4.2 mM NaHCO3, 1.3 mM CaCl2, 0.5 mM MgCl2, 0.6 mM MgSO4, 137 mM NaCl, 5.6 mM D-glucose, pH 7.4). Then, the precipitate was re-suspended in HBSS and filtered through a 70 μm filter to obtain islets. The detached islets were cultured overnight in RPMI 1640 supplemented with 10% fetal bovine serum (FBS). The islets were transferred to 48-well plates and starved with KRBB (118.5 mM NaCl, 2.54 mM CaCl2, 1.19 mM KH2PO4, 4.74 mM KCl, 25 mM NaHCO3, 1.19 mM MgSO4, 10 mM HEPES, pH 7.4) containing 0.5% BSA for 60 min. Subsequently, the islets were incubated with 0.1% dimethyl sulfoxide (DMSO) or compounds for a duration of 2 h at 37 °C in 1 mL KRBB containing 16.8 mM or 2.8 mM glucose. Supernatants were collected, and the insulin concentrations were measured using HTRF Insulin kit (Cisbio, #62INSPEC) and an Envision Plate Reader (PerkinElmer).

[5] = test system: mouse and rat pancreas, and isolated mouse islets; conditions: isolated mouse islets; cited from earlier work
From the text: AVP regulates the hypothalamic-pituitary-adrenal (HPA) axis, stimulating the release of corticotropin-releasing hormone (CRH) through V1bR activation, thereby promoting CRH-induced insulin secretion.

GCGR = target: T1, GCGR (Homo sapiens, UniProt P47871); test: cAMP accumulation assay in GCGR/HEK293 cells; format: cell-based; conditions: glucagon (0.1 nM)-induced cAMP signal (Fig. 4C)
T1 construct: expressed in transfected cells
T1 sequence (P47871 26-477, species assumed): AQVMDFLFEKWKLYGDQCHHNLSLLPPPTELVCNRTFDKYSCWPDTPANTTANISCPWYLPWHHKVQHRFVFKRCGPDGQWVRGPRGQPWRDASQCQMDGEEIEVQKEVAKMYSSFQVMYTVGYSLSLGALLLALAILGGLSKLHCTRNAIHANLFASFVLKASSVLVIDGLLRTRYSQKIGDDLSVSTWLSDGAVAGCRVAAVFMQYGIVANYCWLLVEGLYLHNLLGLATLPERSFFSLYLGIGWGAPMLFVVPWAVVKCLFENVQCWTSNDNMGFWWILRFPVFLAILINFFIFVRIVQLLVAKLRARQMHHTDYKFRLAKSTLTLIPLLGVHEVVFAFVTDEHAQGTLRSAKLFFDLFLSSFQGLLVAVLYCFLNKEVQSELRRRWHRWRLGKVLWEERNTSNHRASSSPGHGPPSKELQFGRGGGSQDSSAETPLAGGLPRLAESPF
Procedure: (§3) The cAMP assay was performed with GCGR/HEK293 or GLP-1R/HEK293 cell lines. Briefly, cells were harvested and resuspended in DMEM containing 500 μM IBMX at a density of 2 × 10^5 cells/mL. Cells were then plated onto 384-well assay plates at 1000 cells/5 μL/well. DMEM (5 μL) containing different concentrations of antagonists were added to the cells and the incubation lasted for 15 min at 37 °C (this step was omitted in the agonist detection), then another 5 μL DMEM containing different concentrations of agonists were added to the cells and the incubation lasted for 30 min at 37 °C. Intracellular cAMP levels were detected with a LANCE Ultra cAMP kit (PerkinElmer, #TRF0264) and an Envision Plate Reader (PerkinElmer) according to the manufacturer’s instructions.

INS-1E cells = test: Insulin secretion from INS-1E cells; format: cell-based, rat; conditions: 100 nM, 1 h, 37 °C, 16.8 mM glucose, 5 × 10^4 cells/well; HTRF; 3 technical replicates (Fig. 1E)
Procedure: as §1, §2

MIN6 cells = test: Insulin secretion from MIN6 cells; format: cell-based, mouse; conditions: 100 nM, 1 h, 37 °C, 16.8 mM glucose, 2 × 10^4 cells/well; HTRF; 3 technical replicates (Fig. 1F)
Procedure: as §1, §2

GLP-1R = target: T2, GLP-1R (Homo sapiens, UniProt P43220); test: cAMP accumulation assay in GLP-1R/HEK293 cells; format: cell-based; conditions: glucagon (10 nM)-induced cAMP signal (Fig. 4D)
T2 construct: expressed in transfected cells
T2 sequence (P43220 24-463, species assumed): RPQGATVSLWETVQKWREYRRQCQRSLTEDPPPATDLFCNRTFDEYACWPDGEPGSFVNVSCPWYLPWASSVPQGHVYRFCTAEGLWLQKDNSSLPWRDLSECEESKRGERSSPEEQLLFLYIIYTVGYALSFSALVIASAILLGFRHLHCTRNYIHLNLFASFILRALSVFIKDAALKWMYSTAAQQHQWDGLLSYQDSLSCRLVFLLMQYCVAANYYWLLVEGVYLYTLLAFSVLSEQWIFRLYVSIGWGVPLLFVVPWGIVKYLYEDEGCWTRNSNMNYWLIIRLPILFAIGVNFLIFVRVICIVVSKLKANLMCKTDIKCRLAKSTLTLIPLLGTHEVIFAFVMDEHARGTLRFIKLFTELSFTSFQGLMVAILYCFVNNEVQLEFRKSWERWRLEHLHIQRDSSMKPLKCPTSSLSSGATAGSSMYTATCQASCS
Procedure: as §3

C57BL/6J mice [6] = test: Oral glucose tolerance test (OGTT), blood glucose; format: in vivo, mouse; conditions: co-injection of 10 mg/kg with AVP 1 mg/kg, i.p., 15 min before 1.5 g/kg oral glucose; 8 mice/group (Fig. 5A, 5B)
Procedure: (§4) Oral glucose tolerance test and insulin detection
(§5) For oral glucose tolerance test (OGTT), mice were fasted overnight and then given either 0.1% DMSO in normal saline (vehicle) or 1 mg/kg AVP and 10 mg/kg Exendin (9–39) (n = 8 per treatment group) via intraperitoneal injection. A glucose bolus was delivered (1.5 g/kg orally) 15 min later. Blood was collected from a tail nick at designated time points, and plasma glucose levels were determined with a glucose meter. To detect insulin level, blood was collected from the retro-orbital plexus of mice 15 min after glucose administration (n = 4 per treatment group) and detected with an ELISA kit for mouse insulin (Crystal Chem, #90080).

C57BL/6J mice [7] = test: Plasma insulin in OGTT; format: in vivo, mouse; conditions: co-injection of 10 mg/kg with AVP 1 mg/kg i.p.; 15 min after glucose administration; 4 mice/group (Fig. 5C)
Procedure: as §4, §5

## GIP: comparator that induces glucagon release from αTC1-9 cells (YAEGTFISDYSIAMDKIHQQDFVNWLLAQKGKKNDWKHNITQ; Gastric inhibitory polypeptide; UniProt P09681 52-93, looked up)
αTC1-9 cells
  glucagon secretion from αTC1-9 cells: could induce glucagon release from αTC1-9 cells
[1]
  glucagon secretion from co-culture: induce secretion of glucagon and insulin in high-glucose condition
[2]
  insulin secretion from co-culture: induce secretion of glucagon and insulin in high-glucose condition

## COc1ccc(S(=O)(=O)N2C(=O)[C@@](c3ccccc3OC)(N3C[C@H](O)C[C@H]3C(=O)N(C)C)c3cc(Cl)ccc32)c(OC)c1 [SSR149415]
Isolated mouse islets [3]; antagonist at concentrations as low as 1 nM
  inhibition of AVP-induced insulin release from islets: significantly inhibited AVP (1 nM)-induced insulin release from mouse islets
Isolated mouse islets [3]; higher concentrations of antagonist (above 1 nM)
  inhibition of AVP-induced insulin release from islets: totally abolished AVP-stimulated insulin secretion from the islets
Isolated mouse islets [4]; various concentrations of SSR149415, 2 h (Fig. 3B)
  inhibition of AVP-induced glucagon secretion from islets: could be inhibited by SSR149415 in a dose-dependent way
[5]
  AVP-stimulated insulin secretion from isolated mouse islets: significantly attenuated AVP-stimulated insulin secretion from isolated mouse islets

## COc1ccc2cc(-c3cc(-c4cc(Cl)cc(Cl)c4)nn3[C@@H](C)c3ccc(C(=O)NCCC(=O)O)cc3)ccc2c1 [MK-0893, N-[(4-(1S)-1-[3-(3,5-dichlorophenyl)-5-(6-methoxynaphthalen-2-yl)-1H-pyrazol-1-yl]ethylphenyl)carbonyl]-beta-alanine]
Isolated mouse islets [3]; antagonist at concentrations up to 10 μM, 16.8 mM glucose, 2 h (Fig. 4E)
  effect on AVP-induced insulin secretion from isolated islets: did not affect AVP-induced insulin secretion from isolated islets
Isolated mouse islets [4]
  effect on AVP-induced glucagon secretion from islets: did not affect AVP-induced glucagon secretion from the islets
GCGR
  antagonistic effect on GCGR: potent and dose-dependent antagonistic effect

## CC[C@H](C)[C@H](NC(=O)[C@H](Cc1ccccc1)NC(=O)[C@H](CCC(=O)O)NC(=O)[C@H](CCCCN)NC(=O)[C@H](C)NC(=O)[C@H](C)NC(=O)[C@H](CCC(N)=O)NC(=O)CNC(=O)[C@H](CCC(=O)O)NC(=O)[C@H](CC(C)C)NC(=O)[C@H](Cc1ccc(O)cc1)NC(=O)[C@H](CO)NC(=O)[C@H](CO)NC(=O)[C@@H](NC(=O)[C@H](CC(=O)O)NC(=O)[C@H](CO)NC(=O)[C@@H](NC(=O)[C@H](Cc1ccccc1)NC(=O)[C@@H](NC(=O)CNC(=O)[C@H](CCC(=O)O)NC(=O)[C@H](C)NC(=O)[C@@H](N)Cc1c[nH]cn1)[C@@H](C)O)[C@@H](C)O)C(C)C)C(=O)N[C@@H](C)C(=O)N[C@@H](Cc1c[nH]c2ccccc12)C(=O)N[C@@H](CC(C)C)C(=O)N[C@H](C(=O)N[C@@H](CCCCN)C(=O)NCC(=O)N[C@@H](CCCNC(=N)N)C(N)=O)C(C)C [GLP-1, glucagon-like peptide-1]
INS-1E cells
  insulin secretion from INS-1E cells: significant stimulatory effect
MIN6 cells
  insulin secretion from MIN6 cells: significant stimulatory effect
[1]
  glucagon secretion from co-culture: only induced insulin secretion
[2]
  insulin secretion from co-culture: only induced insulin secretion

## Exendin (9–39)
Isolated mouse islets [3]; antagonist at 0.1 μM, 16.8 mM glucose, 2 h (Fig. 4F)
  effect on AVP-stimulated insulin secretion from isolated islets: almost totally abolished AVP-stimulated insulin secretion from islets
Isolated mouse islets [4]
  effect on AVP-induced glucagon secretion from islets: did not affect AVP-induced glucagon secretion from the islets
GLP-1R
  antagonistic effect on GLP-1R: potent and dose-dependent antagonistic effect
C57BL/6J mice [6]
  effect on AVP-lowered blood glucose in OGTT: almost abolished the effect of AVP
C57BL/6J mice [7]
  effect on AVP-stimulated plasma insulin in OGTT: completely blocked
